The text below walks through data of patent publication US20150017380A1, “ABSORBENT FOOD PAD HAVING DISCRETE AIRFLOW PASSAGES” (Paper-Pak Industries, priority 2013, published 2015).

The nature of the data set: SO2 generation of Na2S2O5 in an open environment. The data set is classed as physicochemical. How it is done:
FIG. 6A and FIG. 6B show the results of a test that was performed to establish how Na2S2O5 reacts with the environment, and the effect of changes in relative humidity. 0.1 g of Na2S2O5 on sampling “boats” were placed on top of a counter; i.e., in an “open” environment. The concentration of SO2 gas (in parts per million, ppm) in the air at about 2.5 cm (about 1″) above the Na2S2O5 was measured daily for more than 50 days of testing. The relative humidity was also measured for each day of testing.

For the molecule `O=S([O-])S(=O)(=O)[O-].[Na+].[Na+]` [Na2S2O5, sodium metabisulfite], the “average SO2 concentration generated” value (0.1 grams of Na2S2O5, open environment, air about 2.5 cm above the sample, up to 50 days) worked out at 0.5 ppm. The “duration of continuous SO2 generation” value (conclusion from the several tests) is listed as “more than 50 days”.
